# Read-outs that look alike come from different tables or passages of the source. Numbered stars: 1 amine (or outer) side, 2 acyl side, 3 side chain; on linkers, the order of the positions; unused ones are H or OH. Square brackets hold non-standard residues; d marks the D form. Side chains are listed from the residue outwards. Peptide text beside a SMILES is read from it. * marks the point of attachment. C18 diacid = O=C(O)CCCCCCCCCCCCCCCCC(=O)*; C16 diacid = O=C(O)CCCCCCCCCCCCCCC(=O)*; γGlu = O=C(O)[C@H](CCC(=O)[*:2])N[*:1]; αMeF = C[C@](N)(Cc1ccccc1)C(=O)O; αMeK = C[C@](N)(CCCCN)C(=O)O; αMeS = C[C@](N)(CO)C(=O)O; AEEA = NCCOCCOCC(=O)O; Aib = CC(C)(N)C(=O)O
# How the values were obtained:
# Type in all cases: cell-based
# [1] = target: T1, human GLP-1 receptor (GLP-1R) (Homo sapiens, UniProt P43220); assay: cAMP assay, human GLP-1R cells
# T1 construct: expressed in transfected cells; host or cells: HEK293 cells or CHO cells
# Summary of the method: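 Peptide-stimulated cAMP measured by two-step HTRF after a 30 min room-temperature incubation with receptor-expressing cells (hGLP-1R, hGIPR at 1×10^5 cells/ml; hGCGR at 2×10^5 cells/ml). Duplicate dilutions; EC50 from 4-parameter logistic fit of % Delta F.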
# [2] = target: T2, human glucagon receptor (GCGR) (Homo sapiens, UniProt P47871); assay: cAMP assay, human GCGR cells
# T2 construct: expressed in transfected cells; host or cells: HEK293 cells or CHO cells
# Procedure: (§1) Sample dilutions are made in duplicate.
# (§2) A frozen cryo-vial of cells expressing the receptor of interest is thawed rapidly in a water-bath, transferred to pre-warmed assay buffer and spun at 240×g for 5 minutes. Cells are re-suspended in assay buffer at a batch-dependent optimized concentration (e.g. hGCGR cells at 2×10^5 cells/ml, hGLP-1R and hGIPR cells at 1×10^5 cells/ml).
# (§3) To this, 5 μL cell suspension is added and the plates incubated at room temperature for 30 minutes.
# (§4) cAMP levels are measured using a commercially available cAMP dynamic 2 HTRF kit (Cisbio, Cat #62AM4PEJ), following the two step protocol as per manufacturer's recommendations. In brief; anti-cAMP cryptate (donor fluorophore) and cAMP-d2 (acceptor fluorophore) are made up separately by diluting each 1/20 in conjugate & lysis buffer provided in the kit. 5 μL anti-cAMP cryptate is added to wells of the assay plate, and 5 μL cAMP-d2 is added to wells except non-specific binding (NSB) wells, to which conjugate and lysis buffer are added. […] EC50 values of the synthetic peptides determined in cAMP assays are then determined.
# (§5) Data is transformed to % Delta F as described in the manufacturer's guidelines and analyzed by 4-parameter logistic fit to determine EC50 values. […] To compare the balance of activities at the GLP-1R and GCGR between different peptides and across different conditions, these can be correlated, where the EC50's are related to those of comparator peptides.
# [3] = target: T3, human glucose-dependent insulinotropic peptide receptor (GIPR) (Homo sapiens, UniProt P48546); assay: cAMP assay, human GIPR cells
# T3 construct: expressed in transfected cells; host or cells: HEK293 cells or CHO cells
# T3 sequence (P48546 22-466): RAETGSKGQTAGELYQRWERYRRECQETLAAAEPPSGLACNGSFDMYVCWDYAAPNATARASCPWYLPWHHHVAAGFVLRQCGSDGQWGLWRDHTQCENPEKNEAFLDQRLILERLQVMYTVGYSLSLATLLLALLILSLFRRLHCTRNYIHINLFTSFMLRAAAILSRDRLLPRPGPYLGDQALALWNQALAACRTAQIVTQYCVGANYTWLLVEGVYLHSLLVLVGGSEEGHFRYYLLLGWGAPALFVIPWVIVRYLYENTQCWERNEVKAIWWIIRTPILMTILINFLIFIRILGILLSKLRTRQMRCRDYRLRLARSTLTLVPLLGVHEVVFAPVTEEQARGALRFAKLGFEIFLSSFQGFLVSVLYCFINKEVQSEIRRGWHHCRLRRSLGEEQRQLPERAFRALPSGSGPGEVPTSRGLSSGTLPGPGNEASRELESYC
# Procedure: as §1, §2, §3, §4, §5
# [4] = mean of n1 and n2, read-out: Mean pM GLP-1R
# [5] = replicate n1, read-out: Primary assay EC50 GLP-1R n1
# [6] = replicate n2, read-out: Primary assay EC50 GLP-1R n2
# [7] = second replicate (n2), read-out: Primary assay EC50 Gluc-R
# [8] = first replicate, read-out: Primary assay EC50 GIP-R
# [9] = second replicate (n2), read-out: Primary assay EC50 GIP-R
# [10] = cAMP activity, first determination (n1), read-out: Primary assay EC50 GLP-1R n1
# [11] = cAMP activity, mean of n1 and n2, read-out: Mean pM GLP-1R
# [12] = cAMP activity, second determination (n2), read-out: Primary assay EC50 GLP-1R n2
# [13] = cAMP activity, second determination (n2), read-out: Primary assay EC50 Gluc-R
# [14] = cAMP activity, first determination (n1), read-out: Primary assay EC50 GIP-R
# [15] = cAMP activity, second determination (n2), read-out: Primary assay EC50 GIP-R
# T1 sequence (P43220 24-463): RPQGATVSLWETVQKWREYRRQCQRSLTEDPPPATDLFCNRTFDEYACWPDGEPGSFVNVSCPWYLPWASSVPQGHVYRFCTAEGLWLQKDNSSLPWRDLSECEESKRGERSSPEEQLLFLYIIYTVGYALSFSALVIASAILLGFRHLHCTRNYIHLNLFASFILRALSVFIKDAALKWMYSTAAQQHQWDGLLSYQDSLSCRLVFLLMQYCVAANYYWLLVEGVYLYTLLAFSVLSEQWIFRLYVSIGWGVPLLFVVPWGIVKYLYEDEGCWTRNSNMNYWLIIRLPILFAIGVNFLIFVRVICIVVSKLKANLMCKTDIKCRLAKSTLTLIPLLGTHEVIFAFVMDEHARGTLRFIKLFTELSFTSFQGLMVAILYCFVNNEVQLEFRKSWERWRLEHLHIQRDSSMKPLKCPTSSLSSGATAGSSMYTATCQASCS
# T2 sequence (P47871 26-477): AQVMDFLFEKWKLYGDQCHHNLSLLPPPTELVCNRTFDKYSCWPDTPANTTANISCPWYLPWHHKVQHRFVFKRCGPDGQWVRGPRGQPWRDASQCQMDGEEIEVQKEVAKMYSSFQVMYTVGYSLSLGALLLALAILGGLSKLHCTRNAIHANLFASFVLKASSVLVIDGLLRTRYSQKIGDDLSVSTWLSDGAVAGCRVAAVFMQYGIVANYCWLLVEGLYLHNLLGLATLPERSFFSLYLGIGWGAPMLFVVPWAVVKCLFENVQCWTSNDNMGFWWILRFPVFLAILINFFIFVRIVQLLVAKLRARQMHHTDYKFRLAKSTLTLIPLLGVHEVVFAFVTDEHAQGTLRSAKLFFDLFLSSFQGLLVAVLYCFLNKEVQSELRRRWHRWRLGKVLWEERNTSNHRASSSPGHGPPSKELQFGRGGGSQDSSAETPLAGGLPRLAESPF
"EC50 [1, 4] [pM]","EC50 [1, 5] [pM]","EC50 [1, 6] [pM]","EC50 [2, 7] [nM]","EC50 [3, 8] [nM]","EC50 [3, 9] [nM]","EC50 [1, 10] [pM]","EC50 [1, 11] [pM]","EC50 [1, 12] [pM]","EC50 [2, 13] [nM]","EC50 [3, 14] [nM]","EC50 [3, 15] [nM]",SMILES,also measured
79,120,34,≥ 27,≥ 27,≥ 27,,,,,,,CC[C@H](C)[C@H](NC(=O)[C@](C)(Cc1ccccc1)NC(=O)[C@H](CCC(=O)O)NC(=O)[C@](C)(CCCCN)NC(=O)[C@H](C)NC(=O)[C@H](C)NC(=O)[C@H](CCC(=O)O)NC(=O)CNC(=O)[C@H](CCC(=O)O)NC(=O)[C@H](CC(C)C)NC(=O)[C@](C)(Cc1ccccc1)NC(=O)[C@H](CO)NC(=O)[C@](C)(CO)NC(=O)[C@@H](NC(=O)[C@H](CC(=O)O)NC(=O)[C@H](CO)NC(=O)[C@@H](NC(=O)[C@](C)(Cc1ccccc1)NC(=O)[C@H](CO)NC(=O)CNC(=O)[C@H](CCC(=O)O)NC(=O)C(C)(C)NC(=O)[C@@H](N)Cc1c[nH]cn1)[C@@H](C)O)C(C)C)C(=O)N[C@@H](C)C(=O)N[C@@](C)(Cc1ccccc1)C(=O)N[C@H](C(=O)N[C@H](C(=O)N[C@@H](CCCCNC(=O)COCCOCCNC(=O)CCCCCCCCCCCCCCCCC(=O)O)C(=O)NCC(=O)NCC(N)=O)C(C)C)C(C)C [compound 197],
125,190,63,≥ 26,≥ 26,≥ 26,,,,,,,CC[C@H](C)[C@H](NC(=O)[C@](C)(Cc1ccccc1)NC(=O)[C@H](CCC(=O)O)NC(=O)[C@](C)(CCCCN)NC(=O)[C@H](C)NC(=O)[C@H](C)NC(=O)[C@H](CCC(=O)O)NC(=O)CNC(=O)[C@H](CCC(=O)O)NC(=O)[C@H](CC(C)C)NC(=O)[C@](C)(Cc1ccccc1)NC(=O)[C@H](CO)NC(=O)[C@](C)(CO)NC(=O)[C@@H](NC(=O)[C@H](CC(=O)O)NC(=O)[C@H](CO)NC(=O)[C@@H](NC(=O)[C@](C)(Cc1ccccc1)NC(=O)[C@H](CO)NC(=O)CNC(=O)[C@H](CCC(=O)O)NC(=O)C(C)(C)NC(=O)[C@@H](N)Cc1c[nH]cn1)[C@@H](C)O)C(C)C)C(=O)N[C@@H](C)C(=O)N[C@@](C)(Cc1ccccc1)C(=O)N[C@H](C(=O)N[C@H](C(=O)N[C@@H](CCCCNC(=O)CCCCCNC(=O)CCCCCNC(=O)CCCCCNC(=O)CCCCCCCCCCCCCCCCC(=O)O)C(=O)NCC(=O)NCC(N)=O)C(C)C)C(C)C [compound 196],
,,,,,,140,148,160,≥ 28,≥ 28,≥ 28,CC[C@H](C)[C@H](NC(=O)[C@](C)(Cc1ccccc1)NC(=O)[C@H](CCC(=O)O)NC(=O)[C@H](CCCCNC(=O)CCCCCNC(=O)CCCCCCCCCCCCCCCCC(=O)O)NC(=O)[C@H](C)NC(=O)[C@H](C)NC(=O)[C@H](CCC(=O)O)NC(=O)CNC(=O)[C@H](CCC(=O)O)NC(=O)[C@H](CC(C)C)NC(=O)[C@](C)(Cc1ccccc1)NC(=O)[C@H](CO)NC(=O)[C@](C)(CO)NC(=O)[C@@H](NC(=O)[C@H](CC(=O)O)NC(=O)[C@H](CO)NC(=O)[C@@H](NC(=O)[C@](C)(Cc1ccccc1)NC(=O)[C@H](CO)NC(=O)CNC(=O)[C@H](CCC(=O)O)NC(=O)C(C)(C)NC(=O)[C@@H](N)Cc1c[nH]cn1)[C@@H](C)O)C(C)C)C(=O)N[C@@H](C)C(=O)N[C@@](C)(Cc1ccccc1)C(=O)N[C@H](C(=O)N[C@H](C(=O)N[C@@](C)(CCCCN)C(=O)NCC(=O)NCC(N)=O)C(C)C)C(C)C [compound 158],
,,,,,,6500,6140,5790,≥ 25.3,≥ 25,≥ 25.3,CC(C)C[C@H](NC(=O)[C@](C)(Cc1ccccc1)NC(=O)[C@H](CO)NC(=O)[C@](C)(CO)NC(=O)[C@@H](NC(=O)[C@H](CC(=O)O)NC(=O)[C@H](CO)NC(=O)[C@@H](NC(=O)[C@](C)(Cc1ccccc1)NC(=O)[C@H](CO)NC(=O)CNC(=O)[C@H](CCC(=O)O)NC(=O)C(C)(C)NC(=O)[C@@H](N)Cc1c[nH]cn1)[C@@H](C)O)C(C)C)C(=O)N[C@@H](CCC(=O)O)C(=O)NCC(=O)N[C@@H](CCC(=O)O)C(=O)N[C@@H](C)C(=O)N[C@@H](C)C(=O)N[C@@](C)(CCCCN)C(=O)N[C@@H](CCC(=O)O)C(=O)N[C@@](C)(Cc1ccccc1)C(=O)N[C@@H](CCCCNC(=O)COCCOCCNC(=O)COCCOCCNC(=O)CC[C@H](NC(=O)CCCCCCCCCCCCCCCCC(=O)O)C(=O)O)C(=O)N[C@@H](C)C(=O)N[C@@](C)(Cc1ccccc1)C(=O)N[C@H](C(=O)N[C@H](C(=O)N[C@@](C)(CCCCN)C(=O)NCC(=O)NCC(N)=O)C(C)C)C(C)C [compound 106] (H-H[Aib]EGS[αMeF]TSDV[αMeS]S[αMeF]LEGEAA[αMeK]E[αMeF]K([AEEA-AEEA-γGlu-C18 diacid])A[αMeF]VV[αMeK]GG-NH2),
,,,,,,170,125,77,≥ 28,≥ 28,≥ 28,CCCCCCCCCCCCCCCCCC(=O)NCCOCCOCC(=O)NCCCC[C@H](NC(=O)[C@@H](NC(=O)[C@@H](NC(=O)[C@](C)(Cc1ccccc1)NC(=O)[C@H](C)NC(=O)[C@@H](NC(=O)[C@](C)(Cc1ccccc1)NC(=O)[C@H](CCC(=O)O)NC(=O)[C@](C)(CCCCN)NC(=O)[C@H](C)NC(=O)[C@H](C)NC(=O)[C@H](CCC(=O)O)NC(=O)CNC(=O)[C@H](CCC(=O)O)NC(=O)[C@H](CC(C)C)NC(=O)[C@](C)(Cc1ccccc1)NC(=O)[C@H](CO)NC(=O)[C@](C)(CO)NC(=O)[C@@H](NC(=O)[C@H](CC(=O)O)NC(=O)[C@H](CO)NC(=O)[C@@H](NC(=O)[C@](C)(Cc1ccccc1)NC(=O)[C@H](CO)NC(=O)CNC(=O)[C@H](CCC(=O)O)NC(=O)C(C)(C)NC(=O)[C@@H](N)Cc1c[nH]cn1)[C@@H](C)O)C(C)C)[C@@H](C)CC)C(C)C)C(C)C)C(=O)NCC(=O)NCC(N)=O [compound 188],
,,,,,,,,,,,,CC[C@H](C)[C@H](NC(=O)[C@H](Cc1ccccc1)NC(=O)[C@H](CCC(=O)O)NC(=O)[C@](C)(CCCCN)NC(=O)[C@H](C)NC(=O)[C@H](C)NC(=O)[C@H](CCC(=O)O)NC(=O)CNC(=O)[C@H](CCC(=O)O)NC(=O)[C@H](CC(C)C)NC(=O)[C@H](CCCCNC(=O)COCCOCCNC(=O)COCCOCCNC(=O)CC[C@H](NC(=O)CCCCCCCCCCCCCCC(=O)O)C(=O)O)NC(=O)[C@H](CO)NC(=O)[C@](C)(CO)NC(=O)[C@@H](NC(=O)[C@H](CC(=O)O)NC(=O)[C@H](CO)NC(=O)[C@@H](NC(=O)[C@](C)(Cc1ccccc1)NC(=O)[C@H](CO)NC(=O)CNC(=O)[C@H](CCC(=O)O)NC(=O)C(C)(C)NC(=O)[C@@H](N)Cc1c[nH]cn1)[C@@H](C)O)C(C)C)C(=O)N[C@@H](C)C(=O)N[C@@H](Cc1c[nH]c2ccccc12)C(=O)N[C@@H](CCCCNC(=O)COCCOCCNC(=O)COCCOCCNC(=O)CC[C@H](NC(=O)CCCCCCCCCCCCCCC(=O)O)C(=O)O)C(=O)N[C@H](C(=O)N[C@@H](CCC(=O)O)C(=O)NCC(=O)NCC(N)=O)C(C)C [compound 267] (H-H[Aib]EGS[αMeF]TSDV[αMeS]SK([AEEA-AEEA-γGlu-C16 diacid])LEGEAA[αMeK]EFIAWK([AEEA-AEEA-γGlu-C16 diacid])VEGG-NH2; N-terminus assumed),"EC50 ([1]; Table 9, bis-lipidated peptides, mean of n1 and n2, read-out: Primary assay EC50 Mean pM GLP-1R): 569 pM; EC50 ([1]; Table 9, bis-lipidated peptides, replicate n1, read-out: Primary assay EC50 GLP-1R n1): 628 pM; EC50 ([1]; Table 9, bis-lipidated peptides, replicate n2, read-out: Primary assay EC50 GLP-1R n2): 510 pM; EC50 ([2]; Table 9, bis-lipidated peptides, first replicate, read-out: Primary assay EC50 Gluc-R (n1)): ≥ 21.7 nM; EC50 ([2]; Table 9, bis-lipidated peptides, second replicate, read-out: Primary assay EC50 Gluc-R (n2)): ≥ 21.7 nM; EC50 ([3]; Table 9, bis-lipidated peptides, first replicate, read-out: Primary assay EC50 GIP-R (n1)): ≥ 21.7 nM; EC50 ([3]; Table 9, bis-lipidated peptides, second replicate, read-out: Primary assay EC50 GIP-R (n2)): ≥ 21.7 nM"

# Reference: US20210221866A1, “PROTEASE-RESISTANT LIPIDATED GLP-1 ANALOGS” (MEDIMMUNE LIMITED, priority 2015, published 2021)
